Measurements: patent publication EP0628551A1, “Semicyclic urea derivatives as antihistaminic agents” (SHIONOGI & CO., LTD., priority 1993, dated 1994)
Values after ≈ are worked out from the molar mass of the structure shown.

Key:
H₁ receptor = target: T1, H₁ receptor (Mus musculus, UniProt P70174); experiment: H1 receptor binding inhibition test ex vivo (migration to the brain, [3H]-pyrilamine binding to cerebral cortex after oral dosing); assay type: in vivo; details: Slc-ddY male mice, 10 mg/kg orally, cerebral cortex removed 60 minutes after administration, [³H]-pyrilamine 4 nM, lower inhibition = lower migration to brain, read-out: [³H]-labeled pyrilamine binding inhibition ex vivo
T1 construct: A cerebral cortex of a mouse orally administered with Compound I of the present invention is homogenized to prepare a receptor sample; from tissue; host or cells: mouse (Slc-ddY, male) cerebral cortex homogenate after oral dosing
T1 sequence (P70174 whole entry): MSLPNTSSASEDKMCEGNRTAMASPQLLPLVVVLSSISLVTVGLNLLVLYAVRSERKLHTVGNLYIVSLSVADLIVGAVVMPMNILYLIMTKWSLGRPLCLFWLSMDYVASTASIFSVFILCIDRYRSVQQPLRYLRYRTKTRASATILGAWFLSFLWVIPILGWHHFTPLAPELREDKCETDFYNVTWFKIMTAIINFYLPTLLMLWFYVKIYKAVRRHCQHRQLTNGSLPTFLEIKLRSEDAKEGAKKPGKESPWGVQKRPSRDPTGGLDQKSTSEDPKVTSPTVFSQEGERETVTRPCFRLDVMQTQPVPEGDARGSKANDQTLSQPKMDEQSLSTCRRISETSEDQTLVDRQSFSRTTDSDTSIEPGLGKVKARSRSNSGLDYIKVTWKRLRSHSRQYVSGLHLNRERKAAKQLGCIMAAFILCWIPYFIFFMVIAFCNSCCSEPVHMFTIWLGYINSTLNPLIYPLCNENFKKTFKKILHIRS
Method: The receptor sample is incubated with [³H]-pyrilamine.
Five Slc-ddY male mice were used as one group. First, 10 mg/kg of the compound of the present invention was orally administered to each mouse. The mouse were killed by decapitation 60 minutes after the administration and each cerebral cortex was removed. Each cerebral cortex was frozen on dry ice and kept in a refrigerator at -80°C. Before the experiment, each cerebral cortex was homogenized with about 10 times its volume of 50 mM of Na/K phosphate buffer (pH 7.5). A mixture of each cerebral cortex was further diluted 6 times and used as a receptor sample. A mixture of each receptor sample and [³H]-pyrilamine (4 nM) was incubated at 25°C for 30 minutes. The reaction was stopped by dilution and filtration. The radioactivity of [³H]-pyrilamine bound to the receptor sample on the filter paper was measured by a liquid scintillation counter. The specific binding of [³H]-pyrilamine to the receptor sample was obtained by subtracting the non-specific binding from the total bindings. The non-specific binding was obtained under the conditions of containing 10 µM of non-radioactive pyrilamine. The amount of protein was measured by DC protein assay (Biolad), and the inhibition of the compound of the present invention to the specific binding of [³H]-pyrilamine per 1 mg of protein was measured. […]

ileum of a guinea pig = experiment: Evaluation of antihistaminic effects in vitro (inhibition of histamine-induced contraction of isolated ileum, Magnus method); assay type: cell-based; details: Cavia porcellus; guinea pig ileum in saline solution at 37°C; histamine diphosphate 0.5 µg/ml; subject compound 0.03 to 10 µg/ml; 50% inhibition of submaximal contraction; read-out: Antihistaminic effect IC50
Method: The effects of Compound I of the present invention and salts thereof as an antiallergic agents can be evaluated by various methods for measuring antiallergic activity, for example by conducting the following tests (1) and (2). • (1) Antihistaminic effect evaluation test in vitro Histamine diphosphate and Compound I of the present invention or salts thereof are added to an ileum of a guinea pig in a saline solution. The concentration (at which the contraction of the ileum by histamine is inhibited by 50%) of Compound I of the present invention is measured. • (2) Histamine₁ receptor (H₁ receptor) in vitro binding inhibition test As a standard material which binds to a H₁ receptor, pyrilamine is used. Compound I of the present invention is added with varying concentrations to a mixture containing a receptor sample prepared by homogenizing a cerebral cortex of a rat and [³H]-pyrilamine, and incubated. From radioactivity of [³H]-pyrilamine which is bound to the receptor sample, the concentration (IC₅₀) of Compound I inhibiting the specific binding of [³H]-pyrilamine to the receptor sample is measured to obtain an inhibition constant (Ki). Compound I of the present invention has a lower degree of migration to brain. Thus, Compound I has less side effects on the central nervous system such as sleepiness, because of its less frequent binding to the H₁ recepter in brain. The extent of migration of Compound I or salts thereof to the brain can be obtained by the following test method 3. • (3) H₁ receptor binding inhibition test ex vivo A cerebral cortex of a mouse orally administered with Compound I of the present invention is homogenized to prepare a receptor sample. The receptor sample is incubated with [³H]-pyrilamine. From the radioactivity of [³H]-pyrilamine bound to the receptor sample, the inhibition of Compound I with respect to the specific biding of pyrilamine to the receptor sample is obtained.
The following experiments were conducted in accordance with the method of R. Magnus (Arch. F.D. Ges. Physiol., 102: 123-151, 1904). Ileums derived from guinea pigs were respectively soaked in a saline solution at 37°C. Then, histamine diphosphate and a subject compound which had been obtained in the Examples shown in Table 1 were added to each saline solution so that the concentrations of histamine diphosphate and the subject compound are 0.5 µg/ml and 0.03 to 10 µg/ml, respectively. The ileum generally contracts by histamine; however, in the case where the subject compound is present, the antagonistic effect of the subject compound on histamine inhibits the contraction of the ileum. The contraction degree of the ileum was measured at each concentration of the added subject compound, and the concentration IC₅₀ of the subject compound which inhibited 50% submaximal contraction of the ileum by histamine was obtained. The submaximal contraction was obtained in the case where the subject compound was not added. […] When the value of IC₅₀ is lower, the subject cmpound has stronger antihistaminic effects.

Question: `O=C(NCCN1CCN(C(c2ccccc2)c2ccccc2)CC1)N1CCN(c2ccccn2)CC1` [Example 39] was tested. Which inhibition at 10 mg/kg (H₁ receptor) did it give?
Answer: Its inhibition at 10 mg/kg is 4%.

Question: And the IC50 (ileum of a guinea pig)?
Answer: Its IC50 is 0.119 µg/mL (≈ 0.246 µM).

Question: Which inhibition at 10 mg/kg (H₁ receptor) does the source give for `O=C(NCCN1CCC(=C(c2ccccc2)c2ccccc2)CC1)N1CCN(c2ccccn2)CC1` [Example 53] here?
Answer: The inhibition at 10 mg/kg was 0%.

Question: What about the IC50 (ileum of a guinea pig) of the same molecule?
Answer: The IC50 was 1.76 µg/mL (≈ 3.66 µM).

Question: `O=C(NCCCN1CCC(OC(c2ccccc2)c2ccccc2)CC1)N1CCN(S(=O)(=O)c2cccnc2)CC1` [Example 61] was tested. Which inhibition at 10 mg/kg (H₁ receptor) did it give?
Answer: The inhibition at 10 mg/kg was 6%.

Question: And the IC50 (ileum of a guinea pig)?
Answer: The IC50 was 0.196 µg/mL (≈ 0.339 µM).

Question: Which inhibition at 10 mg/kg (H₁ receptor) does the source give for `O=C1CCCN1C(=O)NCCCCCN1CCN(C(c2ccccc2)c2ccccc2)CC1` [Example 79] here?
Answer: The inhibition at 10 mg/kg was 5%.

Question: And the IC50 (ileum of a guinea pig)?
Answer: Its IC50 is 0.042 µg/mL (≈ 0.0936 µM).

Question: Which results are given for `O=C(NCCCN1CCC(=C(c2ccccc2)c2ccccc2)CC1)N1CCN(S(=O)(=O)c2cccc3cccnc23)CC1` [Example 56]?
Answer: inhibition at 10 mg/kg (H₁ receptor): 0%; IC50 (ileum of a guinea pig): 1.38 µg/mL (≈ 2.26 µM)

Question: Which results are given for `O=C(NCCCN1CCC(OC(c2ccccc2)c2ccccc2)CC1)N1CCN(S(=O)(=O)c2cccc3cccnc23)CC1` [Example 55]?
Answer: inhibition at 10 mg/kg (H₁ receptor): 0%; IC50 (ileum of a guinea pig): 1.14 µg/mL (≈ 1.82 µM)

Question: For `CC(C)(C)c1ccc(C(O)CCCN2CCC(C(O)(c3ccccc3)c3ccccc3)CC2)cc1` (stereo not drawn) [Terfenadine, reference compound], which IC50 (ileum of a guinea pig) is on record?
Answer: The IC50 was 22.4 µg/mL (≈ 47.4 µM).

Question: Which results are given for `CC(C)(C)OC(=O)N1CCN(C(=O)NCCCN2CCC(=C(c3ccccc3)c3ccccc3)CC2)CC1` [Example 71]?
Answer: inhibition at 10 mg/kg (H₁ receptor): 7%; IC50 (ileum of a guinea pig): 1.12 µg/mL (≈ 2.16 µM)

Question: Which inhibition at 10 mg/kg (H₁ receptor) does the source give for `O=C(NCCCN1CCC(OC(c2ccccc2)c2ccccc2)CC1)N1CCN(c2ncccn2)CC1` [Example 15] here?
Answer: Its inhibition at 10 mg/kg is 6%.

Question: And the IC50 (ileum of a guinea pig)?
Answer: The IC50 was 0.0595 µg/mL (≈ 0.116 µM).

Question: What does the source list for `O=C(NCCCN1CCC(OC(c2ccccc2)c2ccccc2)CC1)N1CCN(C(c2ccccc2)c2ccccc2)CC1` [Example 45]?
Answer: inhibition at 10 mg/kg (H₁ receptor): 6%; IC50 (ileum of a guinea pig): 0.621 µg/mL (≈ 1.03 µM)

Question: For `O=c1[nH]c2ccccc2n1CCCN1CCN(C(c2ccccc2)c2ccccc2)CC1` [Oxatoamide, reference compound], which inhibition at 10 mg/kg (H₁ receptor) is on record?
Answer: Its inhibition at 10 mg/kg is 17%.

Question: And the IC50 (ileum of a guinea pig)?
Answer: Its IC50 is 1 µg/mL (≈ 2.34 µM).

Question: `O=C1CSCCN1C(=O)NCCCN1CCC(OC(c2ccc(F)cc2)c2ccc(F)cc2)CC1` [Example 49] was tested. Which inhibition at 10 mg/kg (H₁ receptor) did it give?
Answer: The inhibition at 10 mg/kg was 9%.

Question: And the IC50 (ileum of a guinea pig)?
Answer: Its IC50 is 0.0244 µg/mL (≈ 0.0484 µM).

Question: Which results are given for `O=C(NCCCN1CCN(C(c2ccc(F)cc2)c2ccc(F)cc2)CC1)N1CCN(c2ccccn2)CC1` [Example 43]?
Answer: inhibition at 10 mg/kg (H₁ receptor): 14%; IC50 (ileum of a guinea pig): 0.216 µg/mL (≈ 0.404 µM)

Question: For `CC(C)(C)OC(=O)N1CCN(C(=O)NCCCN2CCC(OC(c3ccccc3)c3ccccc3)CC2)CC1` [Example 70], which inhibition at 10 mg/kg (H₁ receptor) is on record?
Answer: Its inhibition at 10 mg/kg is 2%.

Question: And the IC50 (ileum of a guinea pig)?
Answer: The IC50 was 0.0889 µg/mL (≈ 0.166 µM).

Question: With `O=C(NCCCN1CCC(OC(c2ccc(F)cc2)c2ccc(F)cc2)CC1)N1CCN(c2ccccn2)CC1` [Example 50] as the molecule, how does the inhibition at 10 mg/kg (H₁ receptor) read?
Answer: The inhibition at 10 mg/kg was 2%.

Question: And the IC50 (ileum of a guinea pig)?
Answer: Its IC50 is 0.0817 µg/mL (≈ 0.149 µM).

Question: How did the inhibition at 10 mg/kg (H₁ receptor) turn out when `O=C(NCCCN1CCC(=C(c2ccccc2)c2ccccc2)CC1)N1CCN(c2ncccn2)CC1` [Example 5] was run?
Answer: Its inhibition at 10 mg/kg is 0%.

Question: What about the IC50 (ileum of a guinea pig) of the same molecule?
Answer: The IC50 was 0.442 µg/mL (≈ 0.89 µM).

Question: Which results are given for `CCOC(=O)N1CCN(C(=O)NCCCN2CCC(OC(c3ccc(F)cc3)c3ccc(F)cc3)CC2)CC1` [Example 51]?
Answer: inhibition at 10 mg/kg (H₁ receptor): 0%; IC50 (ileum of a guinea pig): 0.427 µg/mL (≈ 0.784 µM)
